The text below walks through data of paper PMC7763088, “Impact of Different Lipid Ligands on the Stability and IgE-Binding Capacity of the Lentil Allergen Len c 3” (Biomolecules, 2020).

For data set [1], the target named is T1, rLen c 3 (Lens culinaris, UniProt A0AT29).
T1 construct: with the formation of the large fragment 1–80 and the protein without C-terminal Phe93; His8-TrxL (octahistidine-thioredoxin carrier) (N, cleaved yes); made in house; host or cells: Escherichia coli BL-21 (DE3)
T1 sequence (A0AT29 26-118): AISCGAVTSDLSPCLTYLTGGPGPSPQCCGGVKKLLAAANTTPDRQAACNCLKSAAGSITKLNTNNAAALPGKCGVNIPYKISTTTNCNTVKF
The experiment in a line: TNS displacement lipid binding assay. On the set-up: species or system lentil. Conditions: for IC50: 25 °C, 4 μM TNS, 4 μM rLen c 3; for Change of rLen c 3 affinity for the ligand at acidic pH: pH 2.5 compared with pH 7.4. How it is done: The ability of rLen c 3 to bind lipids was assayed by monitoring the displacement of the fluorescent probe TNS. Fluorescence intensity was measured at 25 °C with a F-2710 spectrofluorimeter (Hitachi, Tokyo, Japan), using a […] slit width for both excitation (λ = 320 nm) and emission (λ = 437 nm) and the measurement taken for no longer than 1.5–2 s. After equilibrating TNS (4 μM) in 10 mM phosphate buffer, pH 7.4, or 150 mM sodium chloride, pH 2.5, for 2 min with gentle mixing, the 2 mM of competing ligand was titrated into the 2 mL of 4 μM rLen c 3 solution in 1 μL aliquots. The resulting data were fitted by using a sigmoidal curve-fitting in GraphPad Prism from which the concentration able to displace 50% of the TNS (IC50) was calculated. The dependence of the ligand binding on temperature was performed at 20, 40, 60, 90, and 20 °C, after cooling down as previously described. Temperature was checked with a temperature probe in the cuvette. Each experiment was performed in triplicate, independently.

Data set [2] deals with T1, rLen c 3. The experiment in a line: Effect of lipid ligands on secondary structure and thermostability of rLen c 3 (CD spectroscopy). In kind it is physicochemical, lentil. Conditions: for Recovery of rLen c 3 structure after cooling down in the presence of ligand: cooling down to 20 °C after 98.5 °C; for Recovery of rLen c 3 structure after cooling down in the presence of ligand / Effect of ligand on rLen c 3 thermostability (resistance to thermal denaturation): pH 7.4, ligand 1 mM; for Effect of ligand on rLen c 3 thermostability (resistance to thermal denaturation): heating up to 98.5 °C. How it is done: Circular dichroism spectra were recorded at different temperatures, using a J-810 spectropolarimeter (Jasco, Hachioji, Tokyo, Japan) in a 0.1 cm path length quartz cell (Hellma GmbH & Co. KG, Mullheim, Germany) in the 190–250 nm range, and 0.2, using solutions of rLen c 3 in 10 mM phosphate buffer, pH 7.4, or 150 mM sodium chloride, pH 2.5, simulated gastric fluid, at a concentration of 17 µM. Fatty acids or lysolipids were added at a final concentration of 1 mM. Each experiment was performed twice, independently.

Data set [3] deals with T1, rLen c 3. In words: Effect of lipid ligands on gastrointestinal digestion of rLen c 3. In kind it is in vitro ADME, lentil. To be noted: for Effect of ligand on rLen c 3 degradation rate (proteolytic digestion): gastric then duodenal digestion. How it is done: (§1) Simulation of gastrointestinal digestion in vitro was performed as described in [15]. Briefly, gastric digestion was performed for 2 h, using 50 ng of pepsin (p) (Sigma) per 1 μg of rLen c 3 in 0.1 M HCl, pH 2.0 (final protein concentration 0.05 mM). For duodenal digestion, pH of the mixture resulting from gastric digestion was adjusted to 8.0 by addition of ammonium bicarbonate. The obtained mixture was incubated for 24 h at 37 °C with 2.5 ng of trypsin (t) (Promega, Madison, WI, USA) and 10 ng of α-chymotrypsin (ch) (Sigma) per 1 μg of the substrate. Degree of proteolysis was monitored by sodium dodecyl sulfate polyacrylamide gel electrophoresis (SDS-PAGE) under reducing conditions and reversed-phase high-performance liquid chromatography (RP-HPLC) on Luna C18 column (5 μm, 250 × 4.6 mm; Phenomenex, Torrance, CA, USA) at a flow rate of 0.5 mL/min, using a gradient of acetonitrile concentration from 5 to 65% for 45 min in 0.1% trifluoroacetic acid (TFA). Gel analysis was performed, using a densitometer. Electroblotting and subsequent N-terminal protein sequencing were performed as described. The protein was preheated at 100 °C for 30 min to study the effect of temperature on allergen stability. rLen c 3 was preloaded with various lipid ligands (LTP to lipid molar ratio 1:4) for 10 min, in order to investigate their effects on allergen resistance to proteolytic digest. As a control of the influence of lipid ligands on the work of proteolytic enzymes, the same reactions were carried out, using bovine α-casein (Sigma) as a substrate. Some independent experiments were performed in each case.

Data set [4] concerns the target T1, rLen c 3. On the set-up: method as in PMID 28266846. Conditions: among saturated FAs; cited from earlier work.
In data set [5] the test system is pepsin. In words: In vitro gastric digestion (SDS-PAGE). In kind it is in vitro ADME. Conditions: first 5 min; control substrate. How it is done: as §1, with “As a control of the influence of lipid ligands on the work of proteolytic enzymes, the same reactions were carried out, using bovine α-casein (Sigma) as a substrate. Some independent experiments were performed in each case.” left out

Where [6] appears, read: 10 mM phosphate buffer, pH 7.4, read-out: IC50 (TNS displacement).
Setting [7] is: 150 mM sodium chloride, pH 2.5, read-out: IC50 (TNS displacement).

Read-outs that look alike come from different tables or passages of the source.

Regarding `CCCCCCCCCCCCCCCC(=O)OC[C@@H](O)COP(=O)([O-])OCC[N+](C)(C)C` [LPPC, lyso-palmitoyl phosphatidylcholine], the IC50 (usually the concentration that gives 50% inhibition) in data set [1] (setting [6]) was determined as 7.7 ± 0.02 µM. Besides, in data set [1] (setting [7]), the IC50 was found to be 7.3 ± 0.01 µM. Also, the “Change of rLen c 3 affinity for the ligand at acidic pH” value (“Change of rLen c 3 affinity” below) in data set [1] is reported as “slightly increased”. In data set [1] (pH 7.4, heated from 20 to 90 °C, then cooled down to 20 °C), the “Ability of rLen c 3 to bind the ligand after heating and cooling down” value is “not restored”. In addition, in data set [2], the “Recovery of rLen c 3 structure after cooling down in the presence of ligand” value (from here on “Recovery of rLen c 3 structure”) was “recovery of the protein structure was not observed” and the “Effect of ligand on rLen c 3 thermostability (resistance to thermal denaturation)” value (“Effect … (resistance to thermal denaturation)” for short) was “a complete denaturation of the protein did not occur even at 98.5 °C”. Further, in data set [2] (pH 7.4, 20 °C, ligand 1 mM), the “Effect of ligand on secondary structure of rLen c 3” value is “increased the percentage of α-helices”. Moreover, in data set [3] (after 4 and 24 h, effect more pronounced with LPPC), the “Effect of protein preheating before digestion in the presence of ligand on rate of allergen degradation” value is “slightly increased”. Further, the “Effect of ligand on rLen c 3 degradation rate (proteolytic digestion)” value (“Effect of ligand … (proteolytic digestion)” below) in data set [3] (LTP to lipid molar ratio 1:4) is “to a lesser extent, LPPC slowed down the allergen degradation”.

For `CCCCCCCCCCCCCCCCCCCC(=O)O` [ARA, arachidic C20:0], the “Binding capacity / affinity of Len c 3 for saturated fatty acids” value (“Binding capacity / affinity” below) in data set [4] was “lower affinity”.

With `CCCCCCCC/C=C\CCCCCCCC(=O)O` [OLE, oleic acid], the half-maximal inhibitory concentration (IC50) in data set [1] (setting [6]) came to 2.4 ± 0.1 µM; in data set [1] (setting [7]) it was 2.6 ± 0.1 µM. Also, in data set [1], the “Change of rLen c 3 affinity” value was “decreased”. For the same molecule, the “Recovery of rLen c 3 structure” value in data set [2] is given as “partial protein renaturation”. The “Effect … (resistance to thermal denaturation)” value in data set [2] was “increased the rLen c 3 thermostability”. The “Degradation of rLen c 3 in the presence of ligand” value in data set [3] (24 h of duodenal digestion, LTP to lipid molar ratio 1:4) is ~ 55%. For the same molecule, the “Effect of ligand … (proteolytic digestion)” value in data set [3] (LTP to lipid molar ratio 1:4) was “more pronounced”.

In the case of `CCCCCCCCCCCCCCCCCCCCCC(=O)O` [BEH, behenic (docosanoic) acid], the IC50 in data set [1] (setting [6]) amounted to 5.9 ± 0.2 µM; in data set [1] (setting [7]), 6.2 ± 0.1 µM. In addition, the “Effect … (resistance to thermal denaturation)” value in data set [2] was “slight protective effect”. Moreover, the “Effect of ligand … (proteolytic digestion)” value in data set [3] (LTP to lipid molar ratio 1:4) is “slightly accelerated the allergen proteolysis”. The “Binding capacity / affinity” value in data set [4] was “lower affinity”.

In the case of `CCCCCCCCCCCCCCCCCC(=O)O` [STE, stearic acid], in data set [1] (IC50 (TNS displacement), 10 mM phosphate buffer, pH 7.4), the IC50 is 4.5 ± 0.1 µM. Besides, the IC50 in data set [1] (IC50 (TNS displacement), 150 mM sodium chloride, pH 2.5) came out at 5.1 ± 0.1 µM. Further, the “Change of rLen c 3 affinity” value in data set [1] is listed as “decreased”. In data set [2], the “Recovery of rLen c 3 structure” value is listed as “partial protein renaturation” and the “Effect … (resistance to thermal denaturation)” value is recorded as “increased the rLen c 3 thermostability”. In addition, the “Effect of ligand … (proteolytic digestion)” value in data set [3] (LTP to lipid molar ratio 1:4) was “slowed down the allergen degradation”.

Regarding `CCCCCCCCCCCC(=O)O` [LAU, lauric acid], the IC50 in data set [1] (setting [6]) turned out to be 2.1 ± 0.2 µM; in data set [1] (setting [7]), 2.1 ± 0.01 µM. Moreover, the “Change of rLen c 3 affinity” value in data set [1] is reported as “remained unchanged”. For the same molecule, in data set [2], the “Effect … (resistance to thermal denaturation)” value is reported as “slight protective effect”. For the same molecule, the “Effect of ligand … (proteolytic digestion)” value in data set [3] (LTP to lipid molar ratio 1:4) is listed as “quickly digested by trypsin/chymotrypsin”. In addition, the “Binding capacity / affinity” value in data set [4] is given as “highest binding capacities”.

B1: bovine α-casein: bovine α-casein (Sigma), control substrate for proteolytic digestion (protein, UniProt P02662 16-214; P02663 16-222, looked up)
Alpha-S1-casein: RPKHPIKHQGLPQEVLNENLLRFFVAPFPEVFGKEKVNELSKDIGSESTEDQAMEDIKQMEAESISSSEEIVPNSVEQKHIQKEDVPSERYLGYLEQLLRLKKYKVPQLEIVPNSAEERLHSMKEGIHAQQKEPMIGVNQELAYFYPELFRQFYQLDAYPSGAWYYVPLGTQYTDAPSFSDIPNPIGSENSEKTTMPLW
Alpha-S2-casein: KNTMEHVSSSEESIISQETYKQEKNMAINPSKENLCSTFCKEVVRNANEEEYSIGSSSEESAEVATEEVKITVDDKHYQKALNEINQFYQKFPQYLQYLYQGPIVLNPWDQVKRNAVPITPTLNREQLSTSEENSKKTVDMESTEVFTKKTKLTEEEKNRLNFLKKISQRYQKFALPQYLKTVYQHQKAMKPWIQPKTKVIPYVRYL
Consider B1, for which the Degradation by pepsin entry in data set [5] is listed as “almost completely degraded”.
